Data reported in patent US20260183396A1, “CXCR3 OVEREXPRESSION IN CAR-NK CELLS PRIMES MIGRATION/HOMING INTO THE TUMOR MICROENVIRONMENT” (DANA-FARBER CANCER INSTITUTE, INC., priority 2022, published 2026).

Legend:
Format in all cases: cell-based, human
STING [1] = test: STING pathway activation / CXCL10 ELISA in MPM cell lines; details: multiple MPM cell lines treated in vitro
Description: Cytokine analysis. CXCL10 ELISA (R&D Systems DIP100) and granzyme B ELISA (R&D systems DY008) were performed according to manufacturer's instructions on conditioned media collected from cell culture. Cytokine analysis of conditioned media after 3 days of explant (S1) culture (FIG. 9B) utilized the MSD U-PLEX Viral Combo 1 assay (Hu: K15343K-2), which was performed according to manufacturer's instructions.
Cell culture. MPM cell lines were cultured in RPMI-1640 (Thermo Fisher Scientific) supplemented with 10% FBS (Gemini Bio-products). H226, H28, MSTO-211H, H2452 and H2052 were purchased from ATCC. MS428 was provided by the Richards Lab. H2461 and H2591 were provided to Dr. Janne by the NIH (Pass et al., Ann. Thorac. Surg. 59:835-44 (1995)). JMN1B (Demetri et al., Blood 74:940-6 (1989)) and MS589 (Gordon et al., Am. J. Pathol. 166:1827-40 (2005)) were derived at BWH/DFCI and shared internally with permission. All experiments were performed before reaching 10 passages. Mycoplasma infection was regularly checked by PCR using the conditioned media derived from each cell line with primers as previously described (Kitajima et al., Cancer Discov. 9:34-45 (2019)).
Immunoblotting. Cells were lysed in RIPA buffer containing 1× protease inhibitors (Roche 11-836-145-001) and phosphatase inhibitors (50 mmol/L NaF and 100 mmol/L Na3VO4). […]

CXCL10 = CXCL10 release from MPM PDOTS/explants; details: MPM PDOTS, specific samples
Description: Patient-derived organotypic tumor spheroids (PDOTS). PDOTS were generated as previously described (Jenkins et al., Cancer Discov. 8:196-215 (2018); Aref et al., Lab Chip 18:3129-3143 (2018)). Briefly, fresh tumor specimens were minced in a 15 mL falcon tube in prewarmed to 37° C. full media (DMEM from Thermo Fisher Scientific+10% FBS)+100 U/mL collagenase type IV (Life Technologies) and 50 μg/mL dNase I (Roche) for approximately 20 minutes using sterile scissors and pipetting. Dissociated material was strained over 100-μm filter and 40-μm filters to generate S1 (>100 μm), S2 (40-100 μm), and S3 (<40 μm) spheroid fractions, which were subsequently maintained in ultralow-attachment (ULA) tissue culture plates (Corning). […] S2 fractions were used for ex vivo culture by resuspending them in type I rat tail collagen (Corning) at a concentration of 2.8 mg/mL prior to loading into the center gel region of the 3-D microfluidic culture device (AIM Biotech) and incubation for 40 minutes at 37° C. in humidity chambers to allow for polymerization. Collagen hydrogels containing PDOTS were hydrated with media with or without indicated treatments. TAK-676 was provided by Takeda and diluted in dH20. Recombinant human interferon beta (100 ng/ml; R&D Systems) was used as a positive control downstream of STING for STAT1 pathway activation. […]

STING [2] = test: STING immunoblotting in NK cells and TILs
Description: Immunoblotting. […] Imaging of blots and was performed using the LI-COR Odyssey system.

H2591 MPM cells = test: NK cell migration assay towards H2591 spheroids
Description: NK cell infiltration assay. Immune cell infiltration was assessed as previously described (Kitajima et al., Cancer Discov. 9:34-45 (2019); Mahadevan et al., Cancer Discov. 11:1952-1969 (2021)). Briefly, mesothelioma cancer cell spheroids (H2591, H2461, H226) were generated by seeding 5×10^5 cells in suspension in a ULA dish for 24 hours. […] Samples were then pelleted and resuspended in type I rat tail collagen (Corning) at a concentration of 2.5 mg/mL following the addition of 10×PBS with phenol red and pH adjustment using NaOH. pH 7.0-7.5 was confirmed using PANPEHA Whatman paper (Sigma-Aldrich). Cells and collagen were kept on ice to prevent polymerization. […]
For quantification, images were captured on a Nikon Eclipse 80i fluorescence microscope equipped with Z-stack (Prior) and CoolSNAP CCD camera (Roper Scientific). […] Quantification of immune cell infiltration into the 3D tumor microenvironment was performed by measuring the total cell area of cell tracker dye in the entire gel region. For the experiment with the CXCR3 neutralizing antibody (R&D MAB160; FIG. 6B), staining was quantified in a square region in the center of the channel to focus on effects of CXCR3 ligands released by tumor cells. Percent dead cell quantification was performed as in PDOTS as described above. […]

## Nc1ncnc2c1ncn2[C@@H]1O[C@@H]2COP(=O)([S-])O[C@@H]3[C@H](O)[C@@H](COP([O-])(=S)O[C@H]2[C@H]1O)O[C@H]3n1cnc2c(N)ncnc21.[Na+].[Na+] (stereo partly drawn) [ADU-S100]
STING [1]
  STING pathway activation, CXCL10 secretion: potent pathway activation
CXCL10
  CXCL10 release: induced CXCL10 release
STING [2]; NK cells
  time within which STING was degraded: 3 to 6 h
STING [2]; T-cells, STING phosphorylated and activated
  T-cell STING degradation: minimally degraded
H2591 MPM cells
  migration of cNK cells: increased migration
  migration of cNK overexpressing CXCR3: decreased migration
